Laboratory results: patent US20240391923A1, “METHIONINE ADENOSYLTRANSFERASE 2A INHIBITOR FOR TREATING MTAP DELETION-TYPE CANCER” (SUZHOU GENHOUSE BIO CO., LTD., priority 2022, published 2024)
Like-named read-outs stand apart in the source and are kept apart here.

What was measured:
[1] = system: SDMA in human colon cancer cell line HCT116; assay: Cell symmetric dimethylarginine (SDMA) test, In-cell Western, HCT116 (MTAP wild-type); type: cell-based; settings: Homo sapiens, HCT-116, 96 h
Description: MAT2A catalyzes the reaction of L-methionine and ATP to generate SAM, inorganic phosphonic acid, and inorganic diphosphonic acid. SAM is an important methyl donor, and is a substrate of arginine methyltransferase 5 (PRMT5). PRMT5 catalyzes SDMA modification of multiple proteins within a cell. The intracellular SDMA modification level was detected by ICW (In-cell Western), and the inhibition of the test compound on the enzymatic activity of intracellular MAT2A was indirectly reflected.
In the present application, the human colon cancer cell line HCT116 and the corresponding HCT116-MTAP-knockout cell line were seeded into a 96-well cell culture plate at an appropriate cell density. After 24 h, the cells were treated using the test compounds diluted 1:4 fold at the highest concentration of 6 μM for 6 gradients, and a DMSO treatment group was set up separately. The cells were cultured in a 37° C./5% CO2 incubator for 4 days. To test the inhibitory activity of the test compounds against tumor cell SDMA, the medium was discarded, and the plate was washed 3 times with PBST. 4% paraformaldehyde was then used at room temperature for fixation for 20 min. The fixation solution was discarded, the plate was washed 3 times with PBST, and a special blocking solution was added to each well for blocking at room temperature for 2 h. The blocking solution was discarded. After the plate was washed 3 times with PBST, the plate was incubated with SDMA antibody at 4° C. overnight. The next day, the plate was washed 3 times with PBST. The secondary antibody and DRAQ5 were diluted to an appropriate concentration with the blocking solution, and incubated at room temperature for 2 h; the plate was washed 3 times with PBST, and the fluorescence signals at 700 nm and 800 nm were detected using a Li—COR Odyssey two-color near-infrared laser imager.
The data was then processed. After the corresponding background value was subtracted from each well, statistical analysis was performed on the 800 nm/700 nm ratio for each well, a sigmoidal dose-inhibition curve was plotted using a non-linear regression model, and IC50 values were fitted and calculated. Inhibition Rate (%)=(1−SDMA dose/SDMA DMSO control)*100. SDMA dose is the value of the drug treatment group, and SDMA DMSO control is the value of the DMSO control group.

[2] = system: HCT116-MTAP wild-type (+/+)-cell strain; assay: Tumor cell proliferation inhibition assay (CellTiter-Glo), HCT116-MTAP wild-type (+/+); type: cell-based; settings: Homo sapiens, 120 h, 5-day treatment
Experimental: (§1) After the HCT116-MTAP-knockout (−/−) cell strain, the HCT116-MTAP wild-type(+/+)-cell strain, the DOHH-2 cell strain, or the Hut-78 cell strain was treated with the test compound for 5 days, the ATP level was measured using a CellTiter-Glo kit of Promega to evaluate the inhibition of the test compound against the growth of the tumor cell strain.
(§2) In the present application, the HCT116-MTAP-knockout (−/−) cell strain, the HCT116-MTAP wild-type (+/+)-cell strain, the DOHH-2 cell strain, or the Hut-78 cell strain was seeded into a 96-well cell culture plate at an appropriate cell density. After 24 h, the cells were treated using the test compounds diluted 1:3 fold at the highest concentration of 10 μM for 10 gradients, and a DMSO treatment group was set up separately. The cells were cultured in a 37° C./5% CO2 incubator for 5 days.

[3] = system: HCT116-MTAP-knockout (−/−) cell strain; assay: Tumor cell proliferation inhibition assay (CellTiter-Glo), HCT116-MTAP-knockout (-/-); type: cell-based; settings: Homo sapiens, 120 h, 5-day treatment
Experimental: as §1, §2

[4] = target: MAT2A recombinant protein (Homo sapiens, UniProt P31153); assay: MAT2A inhibitory activity (malachite green colorimetric enzyme assay); type: biochemical
How it was run: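 Compounds tested over 10 points, 3-fold dilutions, top final concentration 1000 nM. Enzyme reaction: MAT2A, L-methionine, ATP, room temperature, 60 min, in HEPES pH 7.5 buffer with KCl, MgCl2 and DTT; inorganic phosphate read colorimetrically (malachite green, A630). Inhibition vs log concentration fitted for IC50.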

[5] = system: SDMA in HCT116-MTAP-knockout cell line; assay: Cell symmetric dimethylarginine (SDMA) test, In-cell Western, HCT116-MTAP-knockout; type: cell-based; settings: Homo sapiens, 96 h
[6] = IC50 score class, read-out: Cell 96 h SDMA Inhibition (HCT116-MTAP+/+) (score)
[7] = read-out: Cell 96 h SDMA inhibition (HCT116-MTAP+/+)
[8] = HCT116-MTAP wild-type (+/+) cells, IC50 score, read-out: Tumor cell 5-day relative growth inhibition (HCT116-MTAP+/+) (nM), score
[9] = HCT116-MTAP wild-type (+/+) cells, IC50 value, read-out: Tumor cell 5-day relative growth inhibition (HCT116-MTAP+/+)
[10] = HCT116-MTAP-knockout (−/−) cells, IC50 score, read-out: Tumor cell 5-day relative growth inhibition (HCT116-MTAP−/−) (nM), score
[11] = HCT116-MTAP-knockout (−/−) cells, IC50 value, read-out: Tumor cell 5-day relative growth inhibition (HCT116-MTAP−/−)
[12] = IC50 score class, read-out: MAT2A Inhibition (score)
[13] = IC50 score class, read-out: Cell 96 h SDMA Inhibition (HCT116-MTAP−/−) (score)
[14] = read-out: Cell 96 h SDMA Inhibition (HCT116-MTAP−/−)

MAT2A recombinant protein, sequence (P31153 whole entry): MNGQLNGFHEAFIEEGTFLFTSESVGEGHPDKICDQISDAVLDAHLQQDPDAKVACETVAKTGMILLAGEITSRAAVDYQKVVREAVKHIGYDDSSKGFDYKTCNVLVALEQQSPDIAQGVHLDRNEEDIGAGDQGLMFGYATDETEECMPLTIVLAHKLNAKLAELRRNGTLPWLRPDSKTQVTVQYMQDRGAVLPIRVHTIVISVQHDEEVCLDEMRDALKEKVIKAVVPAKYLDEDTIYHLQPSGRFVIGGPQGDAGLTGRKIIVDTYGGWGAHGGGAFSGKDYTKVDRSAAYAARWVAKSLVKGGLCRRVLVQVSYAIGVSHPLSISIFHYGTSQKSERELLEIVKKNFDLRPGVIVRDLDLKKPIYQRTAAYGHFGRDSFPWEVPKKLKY

IC50 [1, 6] [nM] | IC50 [1, 7] [nM] | IC50 [2, 8] [nM] | IC50 [2, 9] [nM] | IC50 [3, 10] [nM] | IC50 [3, 11] [nM] | IC50 [4, 12] [nM] | IC50 ([4]; read-out: MAT2A Inhibition) [nM] | IC50 [5, 13] [nM] | IC50 [5, 14] [nM] | IC50 ([2]; HCT116-MTAP+/+ cells, IC50 class score, read-out: Tumor cell 5-day relative growth inhibition (HCT116-MTAP+/+) (nM), score) [nM] | IC50 ([2]; HCT116-MTAP+/+ cells, read-out: Tumor cell 5-day relative growth inhibition (HCT116-MTAP+/+)) [nM] | IC50 ([3]; HCT116-MTAP−/− cells, IC50 class score, read-out: Tumor cell 5-day relative growth inhibition (HCT116-MTAP−/−) (nM), score) [nM] | IC50 ([3]; HCT116-MTAP−/− cells, read-out: Tumor cell 5-day relative growth inhibition (HCT116-MTAP−/−)) [nM] | Compound
> 3000 | > 10000 | 500 to 2000 | 550 | < 500 | 284 | < 100 | 100 | < 200 | 98.5 |  |  |  |  | CN1CCN(c2nccc(Cn3cc4c(n3)c(=O)n(-c3cccc5[nH]ncc35)c3cc(Cl)c(F)cc43)n2)CC1 [Compound B333]
> 3000 | 3970 | 500 to 2000 | 939 | < 500 | 299 | < 100 | 28.1 | 200 to 1000 | 110 |  |  |  |  | O=c1c2nn(C3CC3)cc2c2ccc(C(F)(F)F)nc2n1-c1cccc2[nH]ncc12 [Compound B250]
> 3000 | > 10000 | ≥ 2000 | > 10000 | < 500 | 223 |  |  | < 200 | 20 |  |  |  |  | Cn1cc2c(n1)c(=O)n(-c1cccnc1C(F)(F)F)c1cc(Cl)c(F)cc21 (single isomer, unassigned) [Compound B389]
> 3000 | > 10000 | ≥ 2000 | > 10000 | 500 to 2000 | 579 |  |  |  |  |  |  |  |  | O=c1c2nn(C(F)F)cc2c2cc(F)c(Cl)cc2n1-c1cccnc1C1CC1 [Compound B337]

The remaining lines, values behind:

Compound | IC50 [1, 6] [nM] | IC50 [1, 7] [nM] | IC50 [2, 8] [nM] | IC50 [2, 9] [nM] | IC50 [3, 10] [nM] | IC50 [3, 11] [nM] | IC50 [4, 12] [nM] | IC50 ([4]; read-out: MAT2A Inhibition) [nM] | IC50 [5, 13] [nM] | IC50 [5, 14] [nM] | IC50 ([2]; HCT116-MTAP+/+ cells, IC50 class score, read-out: Tumor cell 5-day relative growth inhibition (HCT116-MTAP+/+) (nM), score) [nM] | IC50 ([2]; HCT116-MTAP+/+ cells, read-out: Tumor cell 5-day relative growth inhibition (HCT116-MTAP+/+)) [nM] | IC50 ([3]; HCT116-MTAP−/− cells, IC50 class score, read-out: Tumor cell 5-day relative growth inhibition (HCT116-MTAP−/−) (nM), score) [nM] | IC50 ([3]; HCT116-MTAP−/− cells, read-out: Tumor cell 5-day relative growth inhibition (HCT116-MTAP−/−)) [nM]
Cn1cc2c(n1)c(=O)n(-c1cccc3ccccc13)c1cc(Cl)c(F)cc21 [Compound B370] | > 3000 | > 10000 | ≥ 2000 | > 10000 | ≥ 2000 | > 10000 | < 100 | 58 | 200 to 1000 | 554 |  |  |  | 
Cn1cc2c(n1)c(=O)n(-c1cccnc1C(F)(F)F)c1nc(C(F)(F)F)ccc21 [Compound B80] | > 3000 | > 3000 | ≥ 2000 | 23300 | < 500 | 81.7 |  |  | 200 to 1000 | 218 |  |  |  | 
O=c1c2nn(C(F)F)cc2c2ccc(C(F)(F)F)nc2n1-c1cccnc1 [Compound B255] | > 3000 | 3440 | ≥ 2000 | 12800 | 500 to 2000 | 1160 | < 100 | 19.7 | 200 to 1000 | 222 |  |  |  | 
Cn1cc2c(n1)c(=O)n(-c1cccnc1C(F)(F)F)c1cc(Cl)ccc21 [Compound B68] | > 3000 | > 3000 | ≥ 2000 | > 2000 | < 500 | 41.4 | < 100 | 45.1 | 200 to 1000 | 213 |  |  |  | 
CN1CCN(c2ccc(Cn3cc4c(n3)c(=O)n(-c3cccc5[nH]ncc35)c3cc(Cl)c(F)cc43)cn2)CC1 [Compound B268] | > 3000 | > 10000 | ≥ 2000 | 5240 | ≥ 2000 | 3650 | < 100 | 81 | 1000 to 3000 | 1240 |  |  |  | 
N#Cc1cc2c3c[nH]nc3c(=O)n(-c3cccc4[nH]ncc34)c2cc1Cl [Compound B394] | > 3000 | > 10000 |  |  |  |  | < 100 | 19 | < 200 | 26 | ≥ 2000 | 6840 | < 500 | 359
O=c1c2n[nH]cc2c2ccc(C(F)(F)F)nc2n1-c1cccc2[nH]ncc12 [Compound B239] | > 3000 | > 10000 | < 500 | 477 | < 500 | 50 | < 100 | 14.7 | < 200 | 11 |  |  |  | 
O=c1c2n[nH]cc2c2cc(F)c(Cl)cc2n1-c1cccc2[nH]ncc12 [Compound B263] | 200 to 1000 | 687 | < 500 | 173 | < 500 | 21 | < 100 | 9.3 | < 200 | 3.7 |  |  |  | 
Cn1cc2c(n1)c(=O)n(-c1cccc3[nH]ncc13)c1nc(C(F)(F)F)c(F)cc21 [Compound B274] | 200 to 1000 | 240 | ≥ 2000 | > 10000 | < 500 | 72.5 | < 100 | 9 | 200 to 1000 | 147 |  |  |  | 
